Results published in publication PMC5522267, “Targeting PEPT1: a novel strategy to improve the antitumor efficacy of doxorubicin in human hepatocellular carcinoma therapy” (Oncotarget, 2017).
Where a name gives a salt, the structure may show the parent alone.

Molecular target: T1, PEPT1 (Homo sapiens, UniProt P46059)
T1 construct: endogenous in cells; host or cells: Bel-7402, HepG2 (human HCC cells); Caco-2
T1 sequence (P46059 1-708): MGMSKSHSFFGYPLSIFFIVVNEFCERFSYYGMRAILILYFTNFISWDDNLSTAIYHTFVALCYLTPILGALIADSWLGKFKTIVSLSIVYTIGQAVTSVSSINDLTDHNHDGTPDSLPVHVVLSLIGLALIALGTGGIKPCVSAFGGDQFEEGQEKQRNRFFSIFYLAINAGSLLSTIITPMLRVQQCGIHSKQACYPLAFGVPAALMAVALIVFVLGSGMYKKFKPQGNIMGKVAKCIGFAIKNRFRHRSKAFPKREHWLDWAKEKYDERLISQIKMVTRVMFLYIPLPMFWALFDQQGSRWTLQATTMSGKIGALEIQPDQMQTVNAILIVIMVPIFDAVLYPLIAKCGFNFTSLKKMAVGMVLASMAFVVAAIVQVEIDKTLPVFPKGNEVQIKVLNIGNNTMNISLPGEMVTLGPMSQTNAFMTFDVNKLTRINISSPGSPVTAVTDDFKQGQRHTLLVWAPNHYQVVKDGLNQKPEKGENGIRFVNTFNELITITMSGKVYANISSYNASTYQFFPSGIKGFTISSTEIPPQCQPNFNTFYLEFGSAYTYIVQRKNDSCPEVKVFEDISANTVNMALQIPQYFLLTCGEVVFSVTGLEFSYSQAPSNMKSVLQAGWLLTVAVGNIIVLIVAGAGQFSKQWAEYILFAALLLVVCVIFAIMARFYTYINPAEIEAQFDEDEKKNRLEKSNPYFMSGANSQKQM
Experiment: Uptake, dynamic and competitive inhibition test
Format: cell-based
Settings: inhibitors 0.01 mg/ml preincubated 30 mins, then drug 1 h
Description: The transport of Doxorubicin-tripeptide conjugate by PEPT1 was evaluated by time course, dynamic and competitive inhibition tests. The uptake study was performed on the confluent cell monolayer as described previously.
The uptake buffer was HBSS buffer (0.952 mM CaCl2, 5.36 mM KCl, 0.441 mM KH2PO4, 0.812 mM MgSO4, 136.7 mM NaCl, 0.385 mM Na2HPO4, 25 mM D-glucose, and 10 mM HEPES) adjusted to pH 6.0. […] Then four different initial concentrations (0.025 mg/ml, 0.05 mg/ml, 0.10 mg/ml, 0.15 mg/ml) of Doxorubicin-tripeptide conjugate were incubated with HCC cell monolayer at pH 6.0 for 120 min. At last, 0.05 mg/ml Doxorubicin-tripeptide conjugate was fed to HCC cells at different pH uptake buffer (5.4, 6, 7.4 and 8.4) for 120 min. Inhibition tests were conducted by preincubating the cells with competitive compounds Gly-Sar, Gly-Gln, Gly-Gly-Gly (0.01 mg/ml) respectively for 30 mins and then incubated with Doxorubicin-tripeptide conjugate (0.05 mg/ml) for 1 h. After removing the buffer and rapidly washing 3 times with ice-cold PBS, the cellular uptake was specifically examined with a Multi-Mode Reader (BioTek, Synergy 2, USA) with Excitation 485/20 and Emission 590/35.

SMILES: COc1cccc2c1C(=O)c1c(O)c3c(c(O)c1C2=O)C[C@@](O)(C(=O)CO)C[C@@H]3O[C@H]1C[C@H](N)[C@H](O)[C@H](C)O1 [Doxorubicin, Doxorubicin hydrochloride]
- uptake in presence of inhibitors Gly-Sar, Gly-Gln or Gly-Gly-Gly: not
